# Entries after “also recorded” stand apart in the source; their conditions may differ.
# Key:
# MHC-1 on DC2.4 cells = molecular target: T1, MHC-1 on DC2.4 cells (Mus musculus, UniProt P01901); assay: Competitive inhibition of binding of OVA peptide 1 to MHC-1 on DC2.4 cells; design: species or system murine; details: peptide 2.5 μg/mL against OVA peptide 1 0.25 μg/mL, on ice 30 minutes
# T1 construct: endogenous in cells; host or cells: DC2.4 murine dendritic cell line
# T1 sequence (P01901 22-369): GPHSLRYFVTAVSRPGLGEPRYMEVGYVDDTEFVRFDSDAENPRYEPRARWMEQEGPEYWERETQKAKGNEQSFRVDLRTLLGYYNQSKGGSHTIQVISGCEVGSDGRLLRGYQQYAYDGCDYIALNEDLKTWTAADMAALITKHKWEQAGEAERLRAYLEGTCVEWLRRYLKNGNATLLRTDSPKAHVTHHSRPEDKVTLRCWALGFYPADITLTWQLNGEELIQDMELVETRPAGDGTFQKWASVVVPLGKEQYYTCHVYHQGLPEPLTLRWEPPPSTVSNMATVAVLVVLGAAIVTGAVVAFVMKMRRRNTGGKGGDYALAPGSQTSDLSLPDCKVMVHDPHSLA
# T1 sequence (P01887 21-119 partner): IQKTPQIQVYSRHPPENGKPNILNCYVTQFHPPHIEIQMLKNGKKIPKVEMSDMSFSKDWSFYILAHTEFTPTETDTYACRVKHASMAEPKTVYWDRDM
# Procedure: Murine dendritic cell line, DC2.4 cells, were detached from a dish, and suspended in 1.5 mL tubes at a concentration of 1.5×10^5 cells per […] of PBS.
# [1] = system: antigen-retaining splenocytes (TRP2-9); assay: Induction of cytotoxic T lymphocytes in mice (in vivo CTL assay, flow cytometry), mTRP2 antigen; design: species or system C57BL/6 mice; details: antigen TRP2-9
# Procedure: A CpG DNA(S)-peptide conjugate as an antigen was intracutaneously administered to mice (C57BL/6 mice (♂, 7 weeks old)). The dose of a CpG DNA(S)-peptide conjugate was 50, 200 or 1000 ng per mouse in terms of peptide (about 0.4, 1.7 or 8.5 μg in terms of CpG30(S)). After one week of administration, splenocytes were isolated from those mice of the same strain not receiving administration, and divided into two aliquots of 2.0×10^7 cells/mL. To one aliquot, a peptide as an antigen was added to a concentration of 10 μg/mL, and the mixture was left to stand for 90 minutes to prepare antigen-retaining splenocytes. The other aliquot of splenocytes with no peptide added was regarded as non-antigen-retaining splenocytes. Both of the antigen-retaining splenocytes and the non-antigen-retaining splenocytes were fluorescently modified with 5,6-carboxyfluorescein succinimidyl ester (CFSE). During this process, the concentration of CFSE was varied such that the fluorescence intensity of the antigen-retaining splenocytes (CFSE: 1 μm) was higher than that of the non-antigen-retaining splenocytes (CFSE: 0.1 μm).
# After the lapse of 24 hours from the tail vein administration, splenocytes were isolated from the mice, and evaluated for induced antigen-specific cytotoxic T lymphocyte activity through flow cytometrically quantifying the percentages of antigen-retaining and non-antigen-retaining splenocytes to determine the amount of decrease in antigen-retaining splenocytes. For comparison's sake, other mice were administered PBS (phosphate-buffered saline) instead of a CpG DNA(S)-peptide conjugate, and were regarded as control groups. The control groups were subjected to flow cytometric analysis under the same conditions.
# The dose of the conjugates administered was 200 ng per mouse in terms of peptide.
# The second administration was performed after 10 days from the first administration. Both of the two doses were 200 ng per mouse in terms of peptide.
substance,measurement,setting,value
C-TRP2-9: CSVYDFFVWL (SEQ ID NO: 31); cysteine added to the N-terminus of TRP2-9 (C-TRP2-9),Inhibitory activity against binding of OVA peptide 1 to MHC class I molecules,MHC-1 on DC2.4 cells,no inhibitory activity was observed
CpG20(S)a-mTRP2pep9: CpG20(S)a (SEQ ID NO: 1) conjugated to peptide C-TRP2-8 (CVYDFFVWL) (DNA atcgactctcgagcgttctc; oligonucleotide-peptide conjugate; K3),CTL-inducing ability (decrease in antigen-retaining splenocytes),[1]; dose not stated,high CTL-inducing ability
C-TRP2-8: CVYDFFVWL (SEQ ID NO: 32); cysteine added to N-terminus of amino acid residues 181 to 188 of mTRP2 (C-TRP2-8),Decrease of average fluorescence intensity (OVA peptide 1-MHC-1 complexes on DC2.4 cells),MHC-1 on DC2.4 cells,23%
"CpG30(S)a-mTRP2pep9: CpG30(S)a (SEQ ID NO: 6, phosphorothioate) conjugated via disulfide spacer to peptide C-TRP2-8 (CVYDFFVWL) (DNA gagcgttctcatcgactctcgagcgttctc; phosphorothioate; disulfide spacer conjugate; K3-30(a))",CTL-inducing ability (decrease in antigen-retaining splenocytes),"[1]; 200 ng per mouse in terms of peptide, intracutaneous, single dose",marked decrease in antigen-retaining splenocytes; also recorded: can induce potent CTL activity
same,CTL-inducing ability (decrease in antigen-retaining splenocytes),[1]; dose not stated,high CTL-inducing ability
same,Dose dependency of CTL-inducing ability,"[1]; doses of 50, 200 or 1000 ng per mouse in terms of peptide",dose dependency

# From patent US12685780B2, “Immune inducer containing polynucleotide-peptide conjugate and pharmaceutical composition containing same” (The University of Kitakyushu, priority 2020, dated 2026)
